Laboratory results: patent EP4806435A1, “DIHYDROCHROMENE-DERIVATIVE-CONTAINING THERAPEUTIC AGENT FOR CANCER” (Sumitomo Pharma Co., Ltd., priority 2023, dated 2025)
Like-named read-outs stand apart in the source and are kept apart here.

Experiment: Phase 1 clinical trial: plasma pharmacokinetics
Type: in vivo, human
Conditions: for Tmax / half-life / Cmax / AUC / AUC(0-t): human, plasma, oral; for half-life: read-out: Effective T1/2 (converted)
Experimental: Summary statistics based on preliminary data were obtained for the pharmacokinetics of Compound 1 in patients receiving once-daily doses ranging from 20 mg to 240 mg (Table 5). The mean plasma concentration-time curves of Compound 1 in the once-daily dose groups ranging from 20 mg to 240 mg are shown in Figure 11. In this study, one cycle consists of 28 days, and Cycle 1 Day 1 refers to Day 1 of the first cycle. […] Accumulation was observed after repeated administration. […] Based on these accumulation ratios, the half-life of Compound 1 was estimated to be approximately 4 days. Based on the currently available data, plasma concentrations are considered to have reached steady state by Day 15.
Summary statistics based on preliminary data were obtained for the pharmacokinetics of Compound 1 in patients in the 20 mg QD, 40 mg QD, 80 mg QD, 120 mg QD, 180 mg QD, 240 mg QD, 360 mg QD, and 480 mg daily (240 mg BID) dose groups (Table 6). The mean plasma concentration-time curves of Compound 1 in the 20 mg QD to 480 mg daily (240 mg BID) dose groups are shown in Figure 12 (in Figure 12, Compound 1 is denoted as "DSP-0390"). In this study, one cycle consists of 28 days, and Cycle 1 Day 1 refers to Day 1 of the first cycle. […] The median Tmax ranged from 2 to 8 hours. Accumulation was observed after repeated administration, and assuming linearity based on the observed accumulation ratios, the estimated elimination half-life was considered to be on the order of several days (approximately 1 to 6 days) (data cut-off: March 2024).

[1] = repeated administration, 20 mg to 240 mg once daily, cut-off April 2023

Work on CC1(C)Oc2cc(Cl)ccc2[C@@H]2OCC3(CCN(CCn4ccnc4)CC3)C[C@H]21 [Compound 1, (4'aR,10'bR)-8'-chloro-1-[2-(1H-imidazol-1-yl)ethyl]-5',5'-dimethyl-4'a,10'b-dihydro-2'H,4'H,5'H-spiro[piperidine-4,3'-pyrano[3,2-c][1]benzopyran] diphosphate] yielded a Tmax (180 mg, Cycle 2 Day 1, 180 mg, QD, cut-off April 2023, read-out: Tmax (median)) of 7 h, a half-life (240 mg, 240 mg QD, cut-off March 2024) of 45.6 h and a half-life (240 mg, 480 mg (240 mg BID), cut-off March 2024) of 16.8 h. The Cmax (240 mg, Cycle 1, Day 1, 240 mg QD, cut-off March 2024, read-out: Cmax) was 177 ng/mL, the Tmax (240 mg, Cycle 1, Day 1, 240 mg QD, cut-off March 2024, read-out: Tmax [a] median value) was 2 h and the AUC (240 mg, Cycle 1, Day 1, 240 mg QD, tau = 24 hours, cut-off March 2024, read-out: AUCtau [b]) was 1620 ng·h/mL. It also gave a Cmax (240 mg, Cycle 1, Day 1, 480 mg (240 mg BID), cut-off March 2024, read-out: Cmax) of 143 ng/mL, a Tmax (240 mg, Cycle 1, Day 1, 480 mg (240 mg BID), cut-off March 2024, read-out: Tmax [a] median value) of 4 h and an AUC (240 mg, Cycle 1, Day 1, 480 mg (240 mg BID), n=1, tau = 12 hours, cut-off March 2024, read-out: AUCtau [b]) of 1980 ng·h/mL. For the same molecule, the AUC(0-t) (240 mg, Cycle 1 Day 1, 240 mg, QD, cut-off April 2023, read-out: AUC0-24 (geometric mean)) was 1480 ng·h/mL, the AUC(0-t) (240 mg, Cycle 1 Day 1, 240 mg, QD, cut-off April 2023, read-out: AUC0-24 (mean)) was 1510 ng·h/mL and the AUC(0-t) (240 mg, Cycle 1 Day 1, 240 mg, QD, cut-off April 2023, read-out: AUC0-24 (median)) was 1620 ng·h/mL. The Cmax (240 mg, Cycle 1 Day 1, 240 mg, QD, cut-off April 2023, read-out: Cmax (geometric mean)) was 145 ng/mL, the Cmax (240 mg, Cycle 1 Day 1, 240 mg, QD, cut-off April 2023, read-out: Cmax (mean)) was 153 ng/mL and the Cmax (240 mg, Cycle 1 Day 1, 240 mg, QD, cut-off April 2023, read-out: Cmax (median)) was 148 ng/mL. The Tmax (240 mg, Cycle 1 Day 1, 240 mg, QD, cut-off April 2023, read-out: Tmax (mean)) was 3 h, the Tmax (240 mg, Cycle 1 Day 1, 240 mg, QD, cut-off April 2023, read-out: Tmax (median)) was 2 h and the Cmax (240 mg, Cycle 2, Day 1, 240 mg QD, cut-off March 2024, read-out: Cmax,ss) was 316 ng/mL. It also gave a Tmax (240 mg, Cycle 2, Day 1, 240 mg QD, cut-off March 2024, read-out: Tmax,ss [a] median value) of 5 h, an AUC (240 mg, Cycle 2, Day 1, 240 mg QD, tau = 24 hours, cut-off March 2024, read-out: AUCtau,ss [b]) of 5330 ng·h/mL and a Cmax (240 mg, Cycle 2, Day 1, 480 mg (240 mg BID), cut-off March 2024, read-out: Cmax,ss) of 346 ng/mL. For the same molecule, the Tmax (240 mg, Cycle 2, Day 1, 480 mg (240 mg BID), cut-off March 2024, read-out: Tmax,ss [a] median value) was 7 h, the AUC (240 mg, Cycle 2, Day 1, 480 mg (240 mg BID), n=1, tau = 12 hours, cut-off March 2024, read-out: AUCtau,ss [b]) was 3180 ng·h/mL and the AUC(0-t) (240 mg, Cycle 2 Day 1, 240 mg, QD, N=1, cut-off April 2023, read-out: AUC0-24 (geometric mean)) was 6670 ng·h/mL. It also gave an AUC(0-t) (240 mg, Cycle 2 Day 1, 240 mg, QD, N=1, cut-off April 2023, read-out: AUC0-24 (mean)) of 6670 ng·h/mL, an AUC(0-t) (240 mg, Cycle 2 Day 1, 240 mg, QD, N=1, cut-off April 2023, read-out: AUC0-24 (median)) of 6670 ng·h/mL and a Cmax (240 mg, Cycle 2 Day 1, 240 mg, QD, cut-off April 2023, read-out: Cmax (geometric mean)) of 359 ng/mL. For the same molecule, the Cmax (240 mg, Cycle 2 Day 1, 240 mg, QD, cut-off April 2023, read-out: Cmax (mean)) was 360 ng/mL, the Cmax (240 mg, Cycle 2 Day 1, 240 mg, QD, cut-off April 2023, read-out: Cmax (median)) was 360 ng/mL and the Tmax (240 mg, Cycle 2 Day 1, 240 mg, QD, cut-off April 2023, read-out: Tmax (mean)) was 7 h. The Tmax (240 mg, Cycle 2 Day 1, 240 mg, QD, cut-off April 2023, read-out: Tmax (median)) was 7 h, the half-life (360 mg, 360 mg QD, cut-off March 2024) was 24 h and the Cmax (360 mg, Cycle 1, Day 1, 360 mg QD, cut-off March 2024, read-out: Cmax) was 359 ng/mL. It also gave a Tmax (360 mg, Cycle 1, Day 1, 360 mg QD, cut-off March 2024, read-out: Tmax [a] median value) of 4 h, an AUC (360 mg, Cycle 1, Day 1, 360 mg QD, tau = 24 hours, cut-off March 2024, read-out: AUCtau [b]) of 4110 ng·h/mL and a Cmax (360 mg, Cycle 2, Day 1, 360 mg QD, cut-off March 2024, read-out: Cmax,ss) of 489 ng/mL. The Tmax (360 mg, Cycle 2, Day 1, 360 mg QD, cut-off March 2024, read-out: Tmax,ss [a] median value) was 4 h, the AUC (360 mg, Cycle 2, Day 1, 360 mg QD, tau = 24 hours, cut-off March 2024, read-out: AUCtau,ss [b]) was 8490 ng·h/mL and the AUC(0-t) (Cycle 1 Day 1, 20 mg to 240 mg once daily, cut-off April 2023, read-out: geometric mean of AUC0-24, range over all dose groups) was 76 to 1480 ng·h/mL. It also gave a Cmax (Cycle 1 Day 1, 20 mg to 240 mg once daily, cut-off April 2023, read-out: geometric mean of Cmax, range over all dose groups) of 4 to 145 ng/mL, a Tmax (Cycle 1 Day 1, 20 mg to 240 mg once daily, cut-off April 2023, read-out: median Tmax, range over all dose groups) of 2 to 8 h and an AUC(0-t) (Cycle 2 Day 1, 20 mg to 240 mg once daily, cut-off April 2023, read-out: geometric mean of AUC0-24, range over all dose groups) of 556 to 6670 ng·h/mL. The Cmax (Cycle 2 Day 1, 20 mg to 240 mg once daily, cut-off April 2023, read-out: geometric mean of Cmax, range over all dose groups) was 27.7 to 359 ng/mL, the Tmax (Cycle 2 Day 1, 20 mg to 240 mg once daily, cut-off April 2023, read-out: median Tmax, range over all dose groups) was 2 to 7 h and the “plasma concentrations reached steady state” value (once-daily dosing, cut-off April 2023) was at most 15 days. For the same molecule, the “dose dependence of exposure” value (range of 20 mg to 360 mg QD) was “increased in a dose-dependent manner”, the “mean accumulation ratio for AUC0-24, range over dose groups” value [1] was 3.9-8.6 and the “mean accumulation ratio for Cmax, range over dose groups” value [1] was 2.6-6.2.
